Results: US6395261B1, “Walnut seed meal extract” (Gattefosse S.A., priority 1998, dated 2002)

Assays:
elastase = assay: Elastase activity of cellular extracts of fibroblasts (SANA substrate); assay type: biochemical, human; conditions: positive control at 2 mM
Description: This activity is evaluated on cellular extracts of fibroblasts of human dermis, isolated from the foreskin and cultured according to routine techniques at 37° C., in a humid air-CO2 (95/5%) atmosphere.
The fibroblasts are cultured in DMEM medium supplemented with fetal calf serum (10% FCS) and passaged regularly until a sufficient biomass is obtained.
To carry out the test, the cells are detached from their support by trypsinization. After centrifugation and suitable treatment, the cellular extracts are recovered.
The elastase activity of the cellular extracts was evaluated using Suc-(L-Ala)3-p-nitroanilide (SANA) as substrate. Aliquots of the cellular extract are preincubated at 37° C. in TEA (triethanolamine) buffer at pH=7.8, alone or in buffer containing various concentrations of extracts.
After incubation, a solution of SANA is added to the reaction mixture.
The optical densities at 405 nm are recorded for 1 hour 30 min to 2 hours.
A positive control was introduced into the trial (dichloroisocoumarin at 2 mM).

human skin fibroblasts = assay: Incorporation of 3H-leucine into protein fractions of fibroblasts in monolayer culture; assay type: cell-based; conditions: vitamin C reference product
Description: After culture of the human skin fibroblasts until the cells become confluent, the culture medium is replaced by a medium containing 2% FCS (Fetal Calf Serum) with:
or vitamin C (reference product).
A batch of untreated control culture is performed in parallel.
After 24 hours of incubation at 37° C., labeled leucine (^3H-leucine) is added to the culture medium and the medium is left to incubate for an additional 48 hours. The following are recovered separately:
on the one hand, the culture medium,
on the other hand, the cell lysate after cellular lysis,
and finally the insoluble fraction (membranes, matrix deposited).
The macromolecules are extracted and then the incorporation of the radioactive precursor of these molecules is measured by liquid scintillation.

[1] = macromolecules extracted from the culture medium
[2] = macromolecules extracted from the intracellular medium

Row | Compound | Inhibition (elastase; elastase activity) | mU elastase/10^6 cell (elastase) | % Control (human skin fibroblasts; [1]) | Counts/minute (human skin fibroblasts; [1]) | % Control (human skin fibroblasts; [2]) | Counts/minute (human skin fibroblasts; [2])
1 | O=c1oc(Cl)c(Cl)c2ccccc12 [DCI, dichloroisocoumarin] | 37 | 0.431 mU elastase/10^6 cell |  |  |  | 
2 | O=C1O[C@H]([C@@H](O)CO)C(O)=C1O [Vitamin C, vitamin C] |  |  | 132 % Control | 34748 ± 2599 Counts/minute | 96 % Control | 35953 ± 4349 Counts/minute
